Each structure is given as a SMILES string. Counter-ions that a name gives are not always drawn. A value given as a limit tells only on which side of the number the result lay.

The experiment deals with T1, human receptor found in pancreatic islet cells (Homo sapiens, UniProt Q7Z601).
T1 sequence (Q7Z601 1-462): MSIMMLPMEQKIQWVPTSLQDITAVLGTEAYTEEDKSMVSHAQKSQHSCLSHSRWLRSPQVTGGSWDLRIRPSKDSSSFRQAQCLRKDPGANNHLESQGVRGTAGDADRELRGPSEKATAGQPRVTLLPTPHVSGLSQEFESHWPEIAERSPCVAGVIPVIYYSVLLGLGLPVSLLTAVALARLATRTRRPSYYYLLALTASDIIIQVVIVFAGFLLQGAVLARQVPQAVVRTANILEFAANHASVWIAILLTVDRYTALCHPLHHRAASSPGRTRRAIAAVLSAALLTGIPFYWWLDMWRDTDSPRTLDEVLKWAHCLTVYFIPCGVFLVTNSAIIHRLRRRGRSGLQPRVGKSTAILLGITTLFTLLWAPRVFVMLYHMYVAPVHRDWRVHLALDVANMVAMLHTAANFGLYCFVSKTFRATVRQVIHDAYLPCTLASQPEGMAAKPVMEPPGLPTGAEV
The experiment is described as follows: Activation of intracellular IP3 signaling in transfected cells (Activation Assay). It is filed as cell-based. Particulars: calculated from IP3 concentration measurements in cells transfected with the human receptor. The protocol:
Table 12 provides exemplary compounds that were prepared and assessed, following protocols known to those of skilled in the art, for activation of intracellular inositol trisphosphate (IP3) signaling pathways that lead to elevation of intracellular calcium concentration. EC50 values provided in Table 12 were calculated from IP3 concentration measurements in cells transfected with a human receptor found in pancreatic islet cells, inter alia.
`CNc1cc(-c2cc(NC(=O)[C@H](Cc3ccc(F)cc3)NCc3nnn[nH]3)n(C)n2)ccn1` [Example 23.11, (2S)-2-((1H-tetrazol-5-yl)methylamino)-3-(4-fluorophenyl)-N-(1-methyl-3-(2-(methylamino)pyridin-4-yl)-1H-pyrazol-5-yl)propanamide]: the EC50 (usually the concentration needed to bring the measured effect to its halfway point) was 50 to 100 nM. The value for `Cc1cc(-c2cc(NC(=O)[C@@H](N)Cc3ccc(Cl)cc3Cl)cc(C(=O)O)c2)ccn1` [Example 49.1, 3-((S)-2-Amino-3-(2,4-dichlorophenyl)propanamido)-5-(2-methylpyridin-4-yl)benzoic acid] was 1000 to 10000 nM; that for `O=C(NCCN1CCNC1=O)c1cc(-c2ccncc2)cc2c1CCN2C(=O)[C@H](Cc1ccccc1)NCc1cscn1` [Example 81, (S)—N-(2-(2-Oxoimidazolidin-1-yl)ethyl)-1-(3-phenyl-2-(thiazol-4-ylmethylamino)propanoyl)-6-(pyridin-4-yl)indoline-4-carboxamide] was 100 to 1000 nM. The result for `CNc1cc(-c2cc(NC(=O)[C@H](Cc3ccccc3)NCc3ccc(F)cn3)n(C)n2)ccn1` [Example 23.1, (2S)-2-((5-Fluoropyridin-2-yl)methylamino)-N-(1-methyl-3-(2-(methylamino)pyridin-4-yl)-1H-pyrazol-5-yl)-3-phenylpropanamide] reads less than 50 nM; that for `COC(=O)c1cc(-c2ccncc2)cc2c1CCN2C(=O)[C@@H](N)Cc1ccccc1` [Example 54.1, (S)-Methyl 1-(2-amino-3-phenylpropanoyl)-6-(pyridin-4-yl)indoline-4-carboxylate], 100 to 1000 nM; that for `CC(C)(C(=O)O)c1cc(NC(=O)[C@H](Cc2ccc(Cl)cc2)NCc2cscn2)cc(-c2ccncc2)c1` [Example 63.1, (S)-2-(3-(3-(4-Chlorophenyl)-2-(thiazol-4-ylmethylamino)propanamido)-5-(pyridin-4-yl)phenyl)-2-methylpropanoic acid], 100 to 1000 nM. In the case of `Cn1cnnc1CN[C@@H](Cc1ccccc1)C(=O)Nc1cccc(-c2ccncc2)c1` [Example 34.20, (S)-2-((4-Methyl-4H-1,2,4-triazol-3-yl)methylamino)-3-phenyl-N-(3-(pyridin-4-yl)phenyl)propanamide], the EC50 was 100 to 1000 nM. For `CNc1cc(-c2cc(NC(=O)[C@H](Cc3ccc(F)cc3)NCc3cscn3)n(C)n2)ccn1` [Example 23.5], the EC50 was less than 50 nM. Take `O=C(Nc1cc(-c2ccncc2)ccc1O)[C@H](Cc1ccccc1)NCc1cscn1` [Example 13, (S)—N-(2-hydroxy-5-(pyridin-4-yl)phenyl)-3-phenyl-2-(thiazol-4-ylmethylamino)propanamide]: the EC50 is less than 50 nM.

As for `COc1ncc(-c2ccncc2)cc1NC(=O)[C@H](Cc1ccccc1)NC1(c2ccccn2)CC1` [Example 11.1, (S)—N-(2-methoxy-5-(pyridin-4-yl)pyridin-3-yl)-3-phenyl-2-(1-(pyridin-2-yl)cyclopropylamino)propanamide], the EC50 was less than 50 nM. The value for `COC(=O)c1cc(-c2ccncc2)cc2c1CCN2C(=O)[C@H](Cc1ccccc1)NCc1cscn1` [Example 54.3, (S)-Methyl 1-(3-phenyl-2-(thiazol-4-ylmethylamino)propanoyl)-6-(pyridin-4-yl)indoline-4-carboxylate] was 50 to 100 nM. The result for `CNc1cc(-c2cc(NC(=O)[C@H](Cc3ccc(F)cc3)NCc3cscn3)[nH]n2)ccn1` [Example 18.1, (2S)-3-(4-Fluorophenyl)-N-(3-(2-(methylamino)pyridin-4-yl)-1H-pyrazol-5-yl)-2-(thiazol-4-ylmethylamino)propanamide] reads less than 50 nM; that for `O=C(Nc1cc(-c2ccncc2)no1)[C@H](Cc1ccc(Cl)cc1)NCc1cscn1` [Example 3.1, (S)-3-(4-Chlorophenyl)-N-(3-(pyridin-4-yl)isoxazol-5-yl)-2-(thiazol-4-ylmethylamino)propanamide], 100 to 1000 nM; that for `COC(=O)c1cc(-c2ccncc2)cc2c1CCN2C(=O)[C@H](Cc1ccc(F)cc1)NCc1ccccn1` [Example 54.7, (S)-Methyl 1-(3-(4-fluorophenyl)-2-(pyridin-2-ylmethylamino)propanoyl)-6-(pyridin-4-yl)indoline-4-carboxylate], 50 to 100 nM.

For `CNc1cc(-c2cc(NC(=O)[C@H](Cc3ccccc3)NCC(=O)O)n(C)n2)ccn1` [Example 23.9, 2-((S)-1-(1-Methyl-3-(2-(methylamino)pyridin-4-yl)-1H-pyrazol-5-ylamino)-1-oxo-3-phenylpropan-2-ylamino)acetic acid], the EC50 was less than 50 nM. The result for `O=C(O)Cn1nc(-c2ccncc2)cc1NC(=O)[C@H](Cc1ccccc1)NCc1cscn1` [Example 26, (S)-2-(5-(3-Phenyl-2-(thiazol-4-ylmethylamino)propanamido)-3-(pyridin-4-yl)-1H-pyrazol-1-yl)acetic acid] reads 100 to 1000 nM. The value for `O=C(Nc1csc(-c2ccncc2)n1)[C@H](Cc1ccccc1)NCc1cscn1` [Example 4, (S)-3-Phenyl-N-(2-(pyridin-4-yl)thiazol-4-yl)-2-(thiazol-4-ylmethylamino)propanamide] was 100 to 1000 nM; that for `O=C(O)CN[C@@H](Cc1ccc(F)cc1)C(=O)Nc1cc(-c2ccncc2)no1` [Example 3.2, (S)-2-(3-(4-Fluorophenyl)-1-oxo-1-(3-(pyridin-4-yl)isoxazol-5-ylamino)propan-2-ylamino)acetic acid] was less than 50 nM. The value for `COC(=O)C1CN(Cc2cc(NC(=O)[C@H](Cc3ccccc3)NCc3ccccn3)cc(-c3ccnc(C)c3)c2)C1` [Example 80, Methyl 1-((16S)-3-(2-methylpyridin-4-yl)-5-((S)-3-phenyl-2-(pyridin-2-ylmethylamino)propanamido)benzyl)azetidine-3-carboxylate] was 100 to 1000 nM; that for `COc1ncc(-c2ccnc(C)c2)cc1NC(=O)[C@@H](N)Cc1ccccc1` [Example 35.6, (2S)-2-Amino-N-(2-methoxy-5-(2-methylpyridin-4-yl)pyridin-3-yl)-3-phenylpropanamide] was 1000 to 10000 nM; that for `NC(=O)CNC(=O)c1cc(-c2ccncc2)cc2c1CCN2C(=O)[C@H](Cc1ccccc1)NCc1cscn1` [Example 71, (S)—N-(2-Amino-2-oxoethyl)-1-(3-phenyl-2-(thiazol-4-ylmethylamino)propanoyl)-6-(pyridin-4-yl)indoline-4-carboxamide] was 50 to 100 nM. For `Cc1cc(-c2cc(NC(=O)[C@H](Cc3ccc(F)cc3)NCc3cscn3)n(C)n2)ccn1` [Example 16.1, (2S)-3-(4-Fluorophenyl)-N-(1-methyl-3-(2-methylpyridin-4-yl)-1H-pyrazol-5-yl)-2-(thiazol-4-ylmethylamino)propanamide], the EC50 is less than 50 nM. For `CN(C)CCNC(=O)c1cc(NC(=O)[C@H](Cc2ccccc2)NCc2cscn2)cc(-c2ccncc2)c1` [Example 74, (S)—N-(2-(dimethylamino)ethyl)-3-(3-phenyl-2-(thiazol-4-ylmethylamino)propanamido)-5-(pyridin-4-yl)benzamide bis trifluoroacetate salt], the EC50 is 100 to 1000 nM. The value for `CC(C)N[C@@H](Cc1ccccc1)C(=O)Nc1cccc(-c2ccncc2)c1` [Example 34.13, (S)-2-(Isopropylamino)-3-phenyl-N-(3-(pyridin-4-yl)phenyl)propanamide] was 1000 to 10000 nM.

Source of the values: patent US8785468B2, “Phenylalanine amide derivatives useful for treating insulin-related diseases and conditions” (Amgen Inc., priority 2009, dated 2014).
